# Measurements as given in PMC5218480 (PLoS ONE, 2017).
# Tested on: MV-4-11 cells
# Test: Gene expression microarray analysis (Affymetrix PrimeView) and GSEA
# Type: cell-based, human
# Design: RFU PODN (11730768_x_at) / Fold change /veh PODN (11730768_x_at) / RFU LINC00158 (11744669_a_at) / Fold change /veh LINC00158 (11744669_a_at) / RFU DUSP10 (11751237_a_at) / Fold change /veh DUSP10 (11751237_a_at) / RFU ID3 (11757404_x_at) / Fold change /veh ID3 (11757404_x_at) / RFU PLEKHG5 (11737974_s_at) / Fold change /veh PLEKHG5 (11737974_s_at) / RFU LRRC4B (11730491_at) / Fold change /veh LRRC4B (11730491_at) / RFU GIMAP4 (11747438_a_at) / Fold change /veh GIMAP4 (11747438_a_at) / RFU KRT8 (11758183_x_at) / Fold change /veh KRT8 (11758183_x_at) / RFU CNN1 (11734310_a_at) / Fold change /veh CNN1 (11734310_a_at) / RFU VPS37D (11726825_at) / Fold change /veh VPS37D (11726825_at) / RFU C10orf10 (11716522_x_at) / Fold change /veh C10orf10 (11716522_x_at) / RFU KIR2DL2 /// KIR2DL4 /// KIR2DL5A /// KIR2DL5B /// KIR2DS1 /// KIR2DS2 /// KIR2DS3 /// KIR2DS4 /// KIR3DL3 /// KIR3DL3 /// KIR3DS1 (11738374_at) / Fold change /veh KIR2DL2 /// KIR2DL4 /// KIR2DL5A /// KIR2DL5B /// KIR2DS1 /// KIR2DS2 /// KIR2DS3 /// KIR2DS4 /// KIR3DL3 /// KIR3DL3 /// KIR3DS1 (11738374_at) / RFU C1QL1 (11718748_at) / Fold change /veh C1QL1 (11718748_at) / RFU TMPRSS4 (11747572_a_at) / Fold change /veh TMPRSS4 (11747572_a_at) / RFU HAMP (11756126_x_at) / Fold change /veh HAMP (11756126_x_at) / RFU RNFT2 (11725882_a_at) / Fold change /veh RNFT2 (11725882_a_at) / RFU NR4A2 (11747474_a_at) / Fold change /veh NR4A2 (11747474_a_at) / RFU ABCC12 (11746883_a_at) / Fold change /veh ABCC12 (11746883_a_at) / RFU TMEM136 (11760407_x_at) / Fold change /veh TMEM136 (11760407_x_at) / RFU CLDN22 /// WWC2 (11732394_at) / Fold change /veh CLDN22 /// WWC2 (11732394_at) / RFU HLA-DPB1 (11760878_x_at) / Fold change /veh HLA-DPB1 (11760878_x_at) / RFU SPINT1 (11716480_a_at) / Fold change /veh SPINT1 (11716480_a_at) / RFU GAP43 (11754022_s_at) / Fold change /veh GAP43 (11754022_s_at) / RFU A4GNT (11735810_at) / Fold change /veh A4GNT (11735810_at) / RFU PRB3 (11715151_x_at) / Fold change /veh PRB3 (11715151_x_at) / RFU TUBB4B (11761932_at) / Fold change /veh TUBB4B (11761932_at) / RFU CAPN14 (11732068_a_at) / Fold change /veh CAPN14 (11732068_a_at) / RFU TMCC2 (11721928_a_at) / Fold change /veh TMCC2 (11721928_a_at) / RFU IRGQ (11745062_a_at) / Fold change /veh IRGQ (11745062_a_at) / RFU FAM174B (11720279_a_at) / Fold change /veh FAM174B (11720279_a_at) / RFU TMPRSS4 (11748680_a_at) / Fold change /veh TMPRSS4 (11748680_a_at) / RFU FAM212B (11763350_a_at) / Fold change /veh FAM212B (11763350_a_at) / RFU PLEKHG5 (11743358_a_at) / Fold change /veh PLEKHG5 (11743358_a_at) / RFU ZSCAN30 (11745921_a_at) / Fold change /veh ZSCAN30 (11745921_a_at) / RFU CMKLR1 (11741424_a_at) / Fold change /veh CMKLR1 (11741424_a_at) / RFU LOC101060620 /// MAPK8IP1 (11723275_at) / Fold change /veh LOC101060620 /// MAPK8IP1 (11723275_at) / RFU SPTSSB (11747773_x_at) / Fold change /veh SPTSSB (11747773_x_at) / RFU PRSS12 (11739890_at) / Fold change /veh PRSS12 (11739890_at) / RFU BIN1 (11741810_x_at) / Fold change /veh BIN1 (11741810_x_at) / RFU WNT11 (11732464_a_at) / Fold change /veh WNT11 (11732464_a_at) / RFU C10orf10 (11716521_a_at) / Fold change /veh C10orf10 (11716521_a_at) / RFU C5orf56 (11738089_at) / Fold change /veh C5orf56 (11738089_at) / RFU CYB561 (11721691_x_at) / Fold change /veh CYB561 (11721691_x_at) / RFU ANKRD19P (11752326_a_at) / Fold change /veh ANKRD19P (11752326_a_at) / RFU OR2T12 /// OR2T33 /// OR2T8 (11738714_s_at) / Fold change /veh OR2T12 /// OR2T33 /// OR2T8 (11738714_s_at) / RFU VCAN (11748164_a_at) / Fold change /veh VCAN (11748164_a_at) / RFU JSRP1 (11732532_at) / Fold change /veh JSRP1 (11732532_at) / RFU KRTAP10-11 (11738290_x_at) / Fold change /veh KRTAP10-11 (11738290_x_at) / RFU MYO3A (11730013_a_at) / Fold change /veh MYO3A (11730013_a_at) / RFU EBF3 (11725865_a_at) / Fold change /veh EBF3 (11725865_a_at) / RFU CAMK2N1 (11719241_x_at) / Fold change /veh CAMK2N1 (11719241_x_at) / RFU C5orf56 (11738088_a_at) / Fold change /veh C5orf56 (11738088_a_at) / RFU OLFML3 (11715873_a_at) / Fold change /veh OLFML3 (11715873_a_at) / RFU LOC100653217 /// NTM (11731650_a_at) / Fold change /veh LOC100653217 /// NTM (11731650_a_at) / RFU MAPK11 (11762145_a_at) / Fold change /veh MAPK11 (11762145_a_at) / RFU FIZ1 (11724087_x_at) / Fold change /veh FIZ1 (11724087_x_at) / RFU OASL (11726364_x_at) / Fold change /veh OASL (11726364_x_at) / RFU SOX15 (11748057_x_at) / Fold change /veh SOX15 (11748057_x_at) / RFU CD79A (11719716_a_at) / Fold change /veh CD79A (11719716_a_at) / RFU HIST1H1D (11736915_at) / Fold change /veh HIST1H1D (11736915_at) / RFU CASKIN2 (11723855_a_at) / Fold change /veh CASKIN2 (11723855_a_at) / RFU LOC730098 (11760151_x_at) / Fold change /veh LOC730098 (11760151_x_at) / RFU OR4N2 (11742367_at) / Fold change /veh OR4N2 (11742367_at) / RFU PRRT2 (11749266_a_at) / Fold change /veh PRRT2 (11749266_a_at) / RFU SNX32 (11753110_a_at) / Fold change /veh SNX32 (11753110_a_at) / RFU CDHR5 (11726645_a_at) / Fold change /veh CDHR5 (11726645_a_at) / RFU RCAN1 (11760418_a_at) / Fold change /veh RCAN1 (11760418_a_at) / RFU FAM167A (11723789_a_at) / Fold change /veh FAM167A (11723789_a_at) / RFU FAM26E (11764081_at) / Fold change /veh FAM26E (11764081_at) / RFU ISYNA1 (11749810_s_at) / Fold change /veh ISYNA1 (11749810_s_at) / RFU ACY1 (11761880_at) / Fold change /veh ACY1 (11761880_at) / RFU 11764098_at / Fold change /veh 11764098_at / RFU SAMD14 (11745864_x_at) / Fold change /veh SAMD14 (11745864_x_at) / RFU NPB (11741838_a_at) / Fold change /veh NPB (11741838_a_at) / RFU TMPRSS6 (11731388_a_at) / Fold change /veh TMPRSS6 (11731388_a_at) / RFU KRTAP10-2 (11738614_at) / Fold change /veh KRTAP10-2 (11738614_at) / RFU ARHGAP8 /// PRR5-ARHGAP8 (11727945_x_at) / Fold change /veh ARHGAP8 /// PRR5-ARHGAP8 (11727945_x_at) / RFU KRTAP5-7 /// NADSYN1 (11734609_at) / Fold change /veh KRTAP5-7 /// NADSYN1 (11734609_at) / RFU RASL12 (11751679_a_at) / Fold change /veh RASL12 (11751679_a_at) / RFU CDKN2B (11736163_a_at) / Fold change /veh CDKN2B (11736163_a_at) / RFU PRF1 (11729649_at) / Fold change /veh PRF1 (11729649_at) / RFU, ZNF638 /// ZNF638-IT1 / Fold change vs veh, ZNF638 /// ZNF638-IT1 / RFU, PANK3 / Fold change vs veh, PANK3 / RFU, SH3YL1 / Fold change vs veh, SH3YL1 / RFU, ZEB2 / Fold change vs veh, ZEB2 / RFU, NRIP1 / Fold change vs veh, NRIP1 / RFU, PTTG1IP / Fold change vs veh, PTTG1IP / RFU, CAPN2 / Fold change vs veh, CAPN2 / RFU, MED14 / Fold change vs veh, MED14 / RFU, SNORA58 / Fold change vs veh, SNORA58 / RFU, C1orf63 / Fold change vs veh, C1orf63 / RFU, LRRFIP1 / Fold change vs veh, LRRFIP1 / RFU, NDUFAF7 / Fold change vs veh, NDUFAF7 / RFU, SLC12A2 / Fold change vs veh, SLC12A2 / RFU, IBTK / Fold change vs veh, IBTK / RFU, ESF1 / Fold change vs veh, ESF1 / Fold change vs veh, TMEM50B / RFU, TAOK1 / Fold change vs veh, TAOK1 / RFU, ACBD3 / Fold change vs veh, ACBD3 / RFU, TMA16 / Fold change vs veh, TMA16 / RFU, RWDD3 / Fold change vs veh, RWDD3 / RFU, BCAT1 / Fold change vs veh, BCAT1 / RFU, EDEM3 / Fold change vs veh, EDEM3 / RFU, TMEM33 / Fold change vs veh, TMEM33 / RFU, WDR75 / Fold change vs veh, WDR75 / RFU, AHCTF1 / Fold change vs veh, AHCTF1 / RFU, TFRC / Fold change vs veh, TFRC / RFU, ZDHHC17 / Fold change vs veh, ZDHHC17 / RFU, NOM1 / Fold change vs veh, NOM1 / RFU, ARL8B / Fold change vs veh, ARL8B / RFU, ZBTB11 / Fold change vs veh, ZBTB11 / RFU, TAMM41 / Fold change vs veh, TAMM41 / RFU, KIAA1704 /// LOC100996395 / Fold change vs veh, KIAA1704 /// LOC100996395 / RFU, ING1 / Fold change vs veh, ING1 / RFU, TRMT61B / Fold change vs veh, TRMT61B / RFU, FUBP3 / Fold change vs veh, FUBP3 / RFU, TP53 / Fold change vs veh, TP53 / RFU, TNKS2 / Fold change vs veh, TNKS2 / RFU, ZFP14 / Fold change vs veh, ZFP14 / RFU, ACTR2 / Fold change vs veh, ACTR2 / RFU, PPP3R1 / Fold change vs veh, PPP3R1 / RFU, PIK3R1 / Fold change vs veh, PIK3R1 / RFU, HNRNPA1 / Fold change vs veh, HNRNPA1 / RFU, RNF170 / Fold change vs veh, RNF170 / RFU, ZNF28 / Fold change vs veh, ZNF28 / RFU, RNGTT / Fold change vs veh, RNGTT / RFU, OGT / Fold change vs veh, OGT / RFU, BRD1 / Fold change vs veh, BRD1 / RFU, MARS / Fold change vs veh, MARS / RFU, ZNF655 / Fold change vs veh, ZNF655 / RFU, FAHD1 / Fold change vs veh, FAHD1 / RFU, BDP1 / Fold change vs veh, BDP1 / RFU, LRRCC1 / Fold change vs veh, LRRCC1 / RFU, ARID1A / Fold change vs veh, ARID1A / RFU, ZNF146 / Fold change vs veh, ZNF146 / RFU, ZNF330 / Fold change vs veh, ZNF330 / RFU, GPN3 / Fold change vs veh, GPN3 / RFU, C9orf123 / Fold change vs veh, C9orf123 / RFU, N4BP2L2 / Fold change vs veh, N4BP2L2 / RFU, ARFIP1 / Fold change vs veh, ARFIP1 / RFU, FAM179B / Fold change vs veh, FAM179B / RFU, BCL10 / Fold change vs veh, BCL10 / RFU, UHRF1BP1L / Fold change vs veh, UHRF1BP1L / RFU, BET1 / Fold change vs veh, BET1 / RFU, CNOT2 / Fold change vs veh, CNOT2 / RFU, ZNF268 / Fold change vs veh, ZNF268 / Fold change vs veh, ZNF507 / RFU, DGCR2 / Fold change vs veh, DGCR2 / RFU, WDSUB1 / Fold change vs veh, WDSUB1 / Fold change vs veh, HSP90B1 /// MIR3652 / RFU, ADSS / Fold change vs veh, ADSS / RFU, GK / Fold change vs veh, GK / RFU, ZNF148 / Fold change vs veh, ZNF148 / RFU, TAF9 / Fold change vs veh, TAF9 / RFU, SLC1A5 / Fold change vs veh, SLC1A5 / RFU, SLMO2 / Fold change vs veh, SLMO2 / RFU, ABCC4 / Fold change vs veh, ABCC4 / RFU, LOC101060439 /// RAP1B / Fold change vs veh, LOC101060439 /// RAP1B / RFU, RFX7 / Fold change vs veh, RFX7 / RFU, GTPBP10 / Fold change vs veh, GTPBP10 / RFU, CNEP1R1 / Fold change vs veh, CNEP1R1 / RFU, BIVM-ERCC5 /// ERCC5 / Fold change vs veh, BIVM-ERCC5 /// ERCC5 / RFU, ILF3 / Fold change vs veh, ILF3 / RFU 11762660_at / Fold change /veh 11762660_at / RFU VCAN (11757783_s_at) / Fold change /veh VCAN (11757783_s_at) / RFU DDX43 (11728927_at) / Fold change /veh DDX43 (11728927_at) / RFU KRT8 (11758188_x_at) / Fold change /veh KRT8 (11758188_x_at) / RFU NKD1 (11759106_at) / Fold change /veh NKD1 (11759106_at) / RFU SRD5A1 (11742802_a_at) / Fold change /veh SRD5A1 (11742802_a_at) / RFU TPSAB1 /// TPSB2 (11721975_s_at) / Fold change /veh TPSAB1 /// TPSB2 (11721975_s_at) / RFU GSTM3 (11746129_a_at) / Fold change /veh GSTM3 (11746129_a_at) / RFU IL23R (11737362_x_at) / Fold change /veh IL23R (11737362_x_at) / RFU TMEM51 (11727254_a_at) / Fold change /veh TMEM51 (11727254_a_at) / RFU PIWIL2 (11732686_x_at) / Fold change /veh PIWIL2 (11732686_x_at) / RFU ORM1 (11744905_x_at) / Fold change /veh ORM1 (11744905_x_at) / RFU CCDC152 (11743942_at) / Fold change /veh CCDC152 (11743942_at) / RFU ECM1 (11717891_a_at) / Fold change /veh ECM1 (11717891_a_at) / RFU IL23R (11748794_a_at) / Fold change /veh IL23R (11748794_a_at) / RFU TNFAIP8L3 (11732012_x_at) / Fold change /veh TNFAIP8L3 (11732012_x_at) / RFU MBOAT4 (11741988_at) / Fold change /veh MBOAT4 (11741988_at) / RFU 11764193_at / Fold change /veh 11764193_at / RFU TMEM53 (11763286_at) / Fold change /veh TMEM53 (11763286_at) / RFU MAGEB2 (11727129_at) / Fold change /veh MAGEB2 (11727129_at) / RFU TMEM200A (11744735_a_at) / Fold change /veh TMEM200A (11744735_a_at) / RFU CCDC152 (11751479_a_at) / Fold change /veh CCDC152 (11751479_a_at) / RFU FAM211A (11726209_a_at) / Fold change /veh FAM211A (11726209_a_at) / RFU RGS16 (11746705_a_at) / Fold change /veh RGS16 (11746705_a_at) / RFU VCAN (11755009_s_at) / Fold change /veh VCAN (11755009_s_at) / RFU RHOB (11743442_s_at) / Fold change /veh RHOB (11743442_s_at) / RFU RGS16 (11720943_a_at) / Fold change /veh RGS16 (11720943_a_at) / RFU RGS16 (11720944_at) / Fold change /veh RGS16 (11720944_at) / RFU, VPS4B / Fold change vs veh, VPS4B / RFU, CREB1 / Fold change vs veh, CREB1 / RFU, DNAJC13 / Fold change vs veh, DNAJC13 / RFU, GNAQ / Fold change vs veh, GNAQ / RFU, CDK5R1 / Fold change vs veh, CDK5R1 / RFU, ZRANB3 / Fold change vs veh, ZRANB3 / RFU, CUL4A / Fold change vs veh, CUL4A / RFU, CCNY / Fold change vs veh, CCNY / RFU, UFL1 / Fold change vs veh, UFL1 / RFU, COG3 / Fold change vs veh, COG3 / RFU, DIAPH2 / Fold change vs veh, DIAPH2 / RFU, SKA2 / Fold change vs veh, SKA2 / RFU, AFF3 / Fold change vs veh, AFF3 / RFU, LMF1 / Fold change vs veh, LMF1 / RFU, IPO11 / Fold change vs veh, IPO11 / RFU, DFFB / Fold change vs veh, DFFB / RFU, FOXP1 / Fold change vs veh, FOXP1 / RFU, CARD8 / Fold change vs veh, CARD8 / RFU, STRN3 / Fold change vs veh, STRN3 / RFU, ADK / Fold change vs veh, ADK / RFU, RASSF2 / Fold change vs veh, RASSF2 / RFU, WIPF1 / Fold change vs veh, WIPF1 / RFU, LARP1B / Fold change vs veh, LARP1B / RFU, RASA1 / Fold change vs veh, RASA1 / RFU, RB1 / Fold change vs veh, RB1 / RFU, PPFIA1 / Fold change vs veh, PPFIA1 / RFU, MAT2A / Fold change vs veh, MAT2A / RFU, CCT5 / Fold change vs veh, CCT5 / RFU, WDR92 / Fold change vs veh, WDR92 / RFU, CUX1 / Fold change vs veh, CUX1 / RFU, TTC7A / Fold change vs veh, TTC7A / RFU, TMEM135 / Fold change vs veh, TMEM135 / RFU, DEPTOR / Fold change vs veh, DEPTOR / RFU, CPM / Fold change vs veh, CPM / RFU, DNAJB6 / Fold change vs veh, DNAJB6 / RFU, CACNA2D3 / Fold change vs veh, CACNA2D3 / RFU, DTX4 / Fold change vs veh, DTX4 / RFU, TFCP2 / Fold change vs veh, TFCP2 / RFU, GMCL1 /// GMCL1P1 / Fold change vs veh, GMCL1 /// GMCL1P1 / RFU, AEBP2 / Fold change vs veh, AEBP2 / RFU, SNHG1 /// SNORD22 /// SNORD25 /// SNORD26 /// SNORD27 /// SNORD28 /// SNORD29 /// SNORD31 / Fold change vs veh, SNHG1 /// SNORD22 /// SNORD25 /// SNORD26 /// SNORD27 /// SNORD28 /// SNORD29 /// SNORD31 / Fold change (Aza/veh), C12orf56 (ProbeSet 11735607_a_at) / Fold change (ACY-1035/veh), C12orf56 (ProbeSet 11735607_a_at) / Fold change (Aza/veh), FGFR1OP (ProbeSet 11751329_s_at) / Fold change (ACY-1035/veh), FGFR1OP (ProbeSet 11751329_s_at) / Fold change (Aza/veh), VPS36 (ProbeSet 11739960_a_at) / Fold change (ACY-1035/veh), VPS36 (ProbeSet 11739960_a_at) / RFU SYPL1 (11715823_x_at) / Fold change /veh SYPL1 (11715823_x_at) / RFU IGFBP7 (11715501_s_at) / Fold change /veh IGFBP7 (11715501_s_at) / RFU REEP3 (11722064_at) / Fold change /veh REEP3 (11722064_at) / RFU IGLL1 (11728026_x_at) / Fold change /veh IGLL1 (11728026_x_at): dose or concentration left out as unconfirmed
# Conditions: ProbeSet 11723141_at; LIST B
smiles,measurement,value
Nc1ncn([C@@H]2O[C@H](CO)[C@@H](O)[C@H]2O)c(=O)n1 [azacitidine],"Fold change vs veh, ZBTB11",0.93
